Experimental data: PubChem BioAssay (NCI)
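A five-concentration, 48-hour dose response in 96-well plates underlies each endpoint, interpolated linearly between surrounding concentrations. GI50 = concentration required for 50% inhibition of growth. TGI marks complete inhibition of growth.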

Tests used:
Assay in all cases: growth of human tumour cells (NCI), 48 h
[1] = tested on: COLO 205 colon
[2] = tested on: SK-MEL-2 melanoma
[3] = tested on: HT29 colon
[4] = tested on: EKVX NSCLC
[5] = tested on: HCC-2998 colon
[6] = tested on: SR leukemia
[7] = tested on: OVCAR-3 ovarian
[8] = tested on: U251 CNS
[9] = tested on: MOLT-4 leukemia
[10] = tested on: MDA-MB-468 breast
[11] = tested on: SF-539 CNS
[12] = tested on: 786-0 renal
[13] = tested on: OVCAR-4 ovarian
[14] = tested on: NCI-H460 lung
[15] = tested on: SN12C renal
[16] = tested on: MALME-3M melanoma
[17] = tested on: SF-295 CNS
[18] = tested on: OVCAR-5 ovarian
[19] = tested on: HL-60(TB) leukemia
[20] = tested on: HOP-62 NSCLC
[21] = tested on: CAKI-1 renal
[22] = tested on: SW-620 colon
[23] = tested on: BT-549 breast
[24] = tested on: NCI/ADR-RES ovarian
[25] = tested on: RPMI-8226 leukemia
[26] = tested on: PC-3 prostate
[27] = tested on: T-47D breast
[28] = tested on: K-562 leukemia
[29] = tested on: UACC-62 melanoma
[30] = tested on: RXF 393 renal
[31] = tested on: TK-10 renal
[32] = tested on: HS 578T breast
[33] = tested on: SF-268 CNS
[34] = tested on: IGROV1 ovarian
[35] = tested on: MCF7 breast
[36] = tested on: NCI-H226 lung
[37] = tested on: NCI-H23 lung
[38] = tested on: SK-OV-3 ovarian
[39] = tested on: CCRF-CEM leukemia
[40] = tested on: HCT-15 colon
[41] = tested on: MDA-MB-435
[42] = tested on: DU-145 prostate
[43] = tested on: A498 renal
[44] = tested on: MDA-MB-231 breast
[45] = tested on: KM12 colon
[46] = tested on: SK-MEL-28 melanoma
[47] = tested on: SNB-19 CNS
[48] = tested on: UO-31 renal
[49] = tested on: ACHN renal
[50] = tested on: M14 melanoma
[51] = tested on: NCI-H522 lung
[52] = tested on: SK-MEL-5 melanoma
[53] = tested on: OVCAR-8 ovarian
[54] = tested on: A549 NSCLC
[55] = tested on: LOX IMVI melanoma
[56] = tested on: UACC-257 melanoma
[57] = tested on: HOP-92 NSCLC
[58] = tested on: HCT-116 colon

Compound `CC(=O)Nc1ccc(-n2cnc3cc(-c4ccc(O)cc4)ccc32)cc1C(F)(F)F` has a GI50 [1] of 11.2 µM, a TGI [1] of 42.3 µM and a GI50 [2] of 2.82 µM. The TGI [2] was 9.73 µM, the GI50 [3] was 6.03 µM and the TGI [3] was > 100 µM. For the same compound, the GI50 [4] was 9.92 µM, the TGI [4] was 33.8 µM and the GI50 [5] was 5.31 µM. The TGI [5] was 26.8 µM, the GI50 [6] was 2.58 µM and the TGI [6] was 12.5 µM. The GI50 [7] was 15.7 µM, the TGI [7] was > 100 µM and the GI50 [8] was 4.99 µM. For the same compound, the TGI [8] was 32.4 µM, the GI50 [9] was 4.3 µM and the TGI [9] was > 100 µM. It also gave a GI50 [10] of 0.225 µM, a TGI [10] of 10.8 µM and a GI50 [11] of 6.25 µM. For the same compound, the TGI [11] was 46.7 µM, the GI50 [12] was 8.92 µM and the TGI [12] was 39.1 µM. For the same compound, the GI50 [13] was 24.1 µM, the TGI [13] was > 100 µM and the GI50 [14] was 4.81 µM. The TGI [14] was > 100 µM, the GI50 [15] was 4.26 µM and the TGI [15] was 34.5 µM. It also gave a GI50 [16] of 6.92 µM, a TGI [16] of 51.5 µM and a GI50 [17] of 5.47 µM. For the same compound, the TGI [17] was 27.5 µM, the GI50 [18] was 12.2 µM and the TGI [18] was 34.4 µM. It also gave a GI50 [19] of 2.9 µM, a TGI [19] of 13.5 µM and a GI50 [20] of 8.41 µM. The TGI [20] was 30 µM, the GI50 [21] was 8.34 µM and the TGI [21] was 42 µM. For the same compound, the GI50 [22] was 6.29 µM, the TGI [22] was > 100 µM and the GI50 [23] was 4.76 µM. For the same compound, the TGI [23] was 20.3 µM, the GI50 [24] was 2.25 µM and the TGI [24] was 7.05 µM. It also gave a GI50 [25] of 4.73 µM, a TGI [25] of 27.6 µM and a GI50 [26] of 8.15 µM. The TGI [26] was 39.5 µM, the GI50 [27] was 4.73 µM and the TGI [27] was 43.5 µM. For the same compound, the GI50 [28] was 4.53 µM, the TGI [28] was > 100 µM and the GI50 [29] was 3.82 µM. The TGI [29] was 20.6 µM, the GI50 [30] was 4.31 µM and the TGI [30] was 18.5 µM. The GI50 [31] was 14.8 µM, the TGI [31] was 34.3 µM and the GI50 [32] was 15.3 µM. For the same compound, the TGI [32] was 98.7 µM, the GI50 [33] was 7.57 µM and the TGI [33] was 84.4 µM. It also gave a GI50 [34] of 14.5 µM, a TGI [34] of 87 µM and a GI50 [35] of 4.13 µM. For the same compound, the TGI [35] was 48.5 µM, the GI50 [36] was 13.2 µM and the TGI [36] was 58.6 µM. The GI50 [37] was 6.2 µM, the TGI [37] was 33.1 µM and the GI50 [38] was 17 µM. The TGI [38] was 61.1 µM, the GI50 [39] was 6.65 µM and the TGI [39] was > 100 µM. For the same compound, the GI50 [40] was 4.75 µM, the TGI [40] was > 100 µM and the GI50 [41] was 2.21 µM. The TGI [41] was 6.17 µM, the GI50 [42] was 12.2 µM and the TGI [42] was 46.9 µM. It also gave a GI50 [43] of 25.6 µM, a TGI [43] of 80.5 µM and a GI50 [44] of 10 µM. For the same compound, the TGI [44] was 38.2 µM, the GI50 [45] was 3.93 µM and the TGI [45] was 50.7 µM. The GI50 [46] was 6.4 µM, the TGI [46] was 35.3 µM and the GI50 [47] was 14 µM. For the same compound, the TGI [47] was > 100 µM, the GI50 [48] was 4.84 µM and the TGI [48] was 21.1 µM. The GI50 [49] was 6.62 µM, the TGI [49] was 43.7 µM and the GI50 [50] was 4.25 µM. It also gave a TGI [50] of 30.6 µM, a GI50 [51] of 1.6 µM and a TGI [51] of 4.73 µM. The GI50 [52] was 5.54 µM, the TGI [52] was 32.9 µM and the GI50 [53] was 6.6 µM. For the same compound, the TGI [53] was 68.1 µM, the GI50 [54] was 5.34 µM and the TGI [54] was > 100 µM. The GI50 [55] was 5.71 µM, the TGI [55] was 19.1 µM and the GI50 [56] was 10.6 µM. For the same compound, the TGI [56] was 39.3 µM, the GI50 [57] was 11.6 µM and the TGI [57] was 29.3 µM. For the same compound, the GI50 [58] was 6.86 µM and the TGI [58] was > 100 µM.
With `CC(C)C[C@H](NC(=O)CNC(=O)C[C@H]1O[C@@H]2OC3(C)CC[C@H]4[C@H](C)CC[C@@H]([C@H]1C)[C@@]24O3)B(O)O` the GI50 [1] was 4.79 µM, the TGI [1] was 22.2 µM and the GI50 [3] was 1.67 µM. It also gave a TGI [3] of 4.63 µM, a GI50 [4] of 7.94 µM and a TGI [4] of 79.6 µM. It also gave a GI50 [5] of 1.92 µM, a TGI [5] of 3.46 µM and a GI50 [6] of 0.303 µM. It also gave a TGI [6] of 1.5 µM, a GI50 [7] of 1.78 µM and a TGI [7] of 4.27 µM. The GI50 [8] was 3.61 µM, the TGI [8] was 17.6 µM and the GI50 [9] was 0.332 µM. For the same compound, the TGI [9] was 1.92 µM, the GI50 [10] was 1.43 µM and the TGI [10] was 3.57 µM. For the same compound, the GI50 [11] was 1.32 µM, the TGI [11] was 3.08 µM and the GI50 [12] was 4.22 µM. For the same compound, the TGI [12] was 53.6 µM, the GI50 [13] was 5.64 µM and the TGI [13] was > 100 µM. For the same compound, the GI50 [14] was 4.72 µM, the TGI [14] was 23 µM and the GI50 [15] was 2.98 µM. The TGI [15] was 12 µM, the GI50 [16] was 1.22 µM and the TGI [16] was 4.4 µM. It also gave a GI50 [17] of 2.45 µM, a TGI [17] of 11.3 µM and a GI50 [18] of 2.53 µM. It also gave a TGI [18] of 13.8 µM, a GI50 [19] of 0.514 µM and a TGI [19] of 4.15 µM. For the same compound, the GI50 [20] was 3.89 µM, the TGI [20] was 18.4 µM and the GI50 [21] was 16.8 µM. For the same compound, the TGI [21] was > 100 µM, the GI50 [22] was 2.78 µM and the TGI [22] was 17.8 µM. For the same compound, the GI50 [23] was 0.537 µM, the TGI [23] was 2.45 µM and the GI50 [24] was 40.6 µM. The TGI [24] was > 100 µM, the GI50 [25] was 0.272 µM and the TGI [25] was 1.38 µM. It also gave a GI50 [26] of 5.47 µM, a TGI [26] of 67 µM and a GI50 [27] of 2.19 µM. For the same compound, the TGI [27] was 5.88 µM, the GI50 [28] was 3.69 µM and the TGI [28] was > 100 µM. The GI50 [29] was 1.92 µM, the TGI [29] was 4.61 µM and the GI50 [30] was 0.738 µM. For the same compound, the TGI [30] was 2.18 µM, the GI50 [31] was 3.01 µM and the TGI [31] was 20.1 µM. It also gave a GI50 [32] of 3.5 µM, a TGI [32] of 70.6 µM and a GI50 [33] of 3.51 µM. It also gave a TGI [33] of 97.5 µM, a GI50 [34] of 6.94 µM and a TGI [34] of 34.4 µM. For the same compound, the GI50 [35] was 1.36 µM, the TGI [35] was 41 µM and the GI50 [36] was 0.645 µM. For the same compound, the TGI [36] was 2.14 µM, the GI50 [37] was 3.1 µM and the TGI [37] was 11.8 µM. It also gave a GI50 [38] of 6.45 µM, a TGI [38] of 35.2 µM and a GI50 [39] of 0.502 µM. The TGI [39] was 3.88 µM, the GI50 [40] was 6.42 µM and the TGI [40] was 24.1 µM. It also gave a GI50 [41] of 1.38 µM, a TGI [41] of 3.93 µM and a GI50 [42] of 13.5 µM. For the same compound, the TGI [42] was > 100 µM, the GI50 [43] was 6.87 µM and the TGI [43] was 49 µM. For the same compound, the GI50 [45] was 2.71 µM, the TGI [45] was 7.32 µM and the GI50 [46] was 1.45 µM. For the same compound, the TGI [46] was 7.28 µM, the GI50 [47] was 5.83 µM and the TGI [47] was > 100 µM. The GI50 [49] was 3.99 µM, the TGI [49] was > 100 µM and the GI50 [50] was 1.91 µM. For the same compound, the TGI [50] was 4.82 µM, the GI50 [51] was 1.63 µM and the TGI [51] was 3.3 µM. It also gave a GI50 [52] of 1.79 µM, a TGI [52] of 3.67 µM and a GI50 [53] of 3.58 µM. For the same compound, the TGI [53] was 17.6 µM, the GI50 [54] was 3.93 µM and the TGI [54] was > 100 µM. For the same compound, the GI50 [55] was 1.44 µM, the TGI [55] was 3.14 µM and the GI50 [57] was 3.12 µM. It also gave a TGI [57] of 9.51 µM, a GI50 [58] of 1.46 µM and a TGI [58] of 3.7 µM.
